Values quoted from earlier work as cited in patent publication US20240065995A1, “INJECTABLE METHODS TO TREAT DEFICIENCIES IN GLUTATHIONE METABOLISM AND HOMOCYSTINURIA” (priority 2022, published 2024).

Conditions: glutathione in the bloodstream; background statement

- half-life in the bloodstream: under 2 minutes
Compound: N[C@@H](CCC(=O)N[C@@H](CS)C(=O)NCC(=O)O)C(=O)O [Glutathione]
